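Interpolation was linear, between the two tested concentrations surrounding the appropriate level; five concentrations were tested over 48 hours in 96-well plates. GI50 = concentration required for 50% inhibition of growth.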 Active and inactive are the calls of the source. Rule as the data show it: active = GI50 up to about 1.1 µM and inactive = higher.
Columns and labels:
Test in all cases: inhibition of tumour cell growth, NCI panel, 48 h
786-0 = tested on: 786-0
A498 = tested on: A498
A549 = tested on: A549
ACHN = tested on: ACHN
CAKI-1 = tested on: CAKI-1
CCRF-CEM = tested on: CCRF-CEM
COLO 205 = tested on: COLO 205
DLD-1 = tested on: DLD-1
DMS-114 = tested on: DMS-114
DMS-273 = tested on: DMS-273
EKVX = tested on: EKVX
HCC 2998 = tested on: HCC 2998
HCT-116 = tested on: HCT-116
HCT-15 = tested on: HCT-15
HL-60 = tested on: HL-60
HOP-18 = tested on: HOP-18
HOP-62 = tested on: HOP-62
HOP-92 = tested on: HOP-92
HT-29 = tested on: HT-29
IGROV-1 = tested on: IGROV-1
K562 = tested on: K562
KM-20L2 = tested on: KM-20L2
KM12 = tested on: KM12
LOX IMVI = tested on: LOX IMVI
LXFL 529 = tested on: LXFL 529
M14 = tested on: M14
M19-MEL = tested on: M19-MEL
MOLT-4 = tested on: MOLT-4
Malme-3M = tested on: Malme-3M
NCI-H226 = tested on: NCI-H226
NCI-H23 = tested on: NCI-H23
NCI-H460 = tested on: NCI-H460
NCI-H522 = tested on: NCI-H522
OVCAR-3 = tested on: OVCAR-3
OVCAR-4 = tested on: OVCAR-4
OVCAR-5 = tested on: OVCAR-5
OVCAR-8 = tested on: OVCAR-8
RPMI-8226 = tested on: RPMI-8226
RXF 393 = tested on: RXF 393
RXF 631 = tested on: RXF 631
SF-268 = tested on: SF-268
SF-295 = tested on: SF-295
SF-539 = tested on: SF-539
SK-MEL-28 = tested on: SK-MEL-28
SK-MEL-2 = tested on: SK-MEL-2
SK-MEL-5 = tested on: SK-MEL-5
SK-OV-3 = tested on: SK-OV-3
SN12C = tested on: SN12C
SNB-19 = tested on: SNB-19
SNB-75 = tested on: SNB-75
SNB-78 = tested on: SNB-78
SW-620 = tested on: SW-620
TK-10 = tested on: TK-10
U-251 = tested on: U-251
UACC-257 = tested on: UACC-257
UACC-62 = tested on: UACC-62
UO-31 = tested on: UO-31
XF498 = tested on: XF498
SR = tested on: SR

SMILES: Brc1ccc(/C=N/C23CC4CC(CC(C4)C2)C3)cc1
- GI50 (786-0): > 100 µM (inactive)
- GI50 (A498): > 100 µM (inactive)
- GI50 (A549): > 100 µM (inactive)
- GI50 (ACHN): > 100 µM (inactive)
- GI50 (CAKI-1): > 100 µM (inactive)
- GI50 (CCRF-CEM): > 100 µM (inactive)
- GI50 (COLO 205): > 100 µM (inactive)
- GI50 (DLD-1): > 100 µM (inactive)
- GI50 (DMS-114): > 100 µM (inactive)
- GI50 (DMS-273): > 100 µM (inactive)
- GI50 (EKVX): > 100 µM (inactive)
- GI50 (HCC 2998): > 100 µM (inactive)
- GI50 (HCT-116): > 100 µM (inactive)
- GI50 (HCT-15): > 100 µM
- GI50 (HL-60): > 100 µM (inactive)
- GI50 (HOP-18): > 100 µM (inactive)
- GI50 (HOP-62): > 100 µM (inactive)
- GI50 (HOP-92): > 100 µM (inactive)
- GI50 (HT-29): > 100 µM (inactive)
- GI50 (IGROV-1): > 100 µM (inactive)
- GI50 (K562): > 100 µM (inactive)
- GI50 (KM-20L2): > 100 µM (inactive)
- GI50 (KM12): > 100 µM (inactive)
- GI50 (LOX IMVI): > 100 µM (inactive)
- GI50 (LXFL 529): > 100 µM (inactive)
- GI50 (M14): > 100 µM (inactive)
- GI50 (M19-MEL): > 100 µM (inactive)
- GI50 (MOLT-4): > 100 µM (inactive)
- GI50 (Malme-3M): > 100 µM (inactive)
- GI50 (NCI-H226): > 100 µM (inactive)
- GI50 (NCI-H23): > 100 µM (inactive)
- GI50 (NCI-H460): > 100 µM (inactive)
- GI50 (NCI-H522): > 100 µM (inactive)
- GI50 (OVCAR-3): > 100 µM (inactive)
- GI50 (OVCAR-4): > 100 µM (inactive)
- GI50 (OVCAR-5): > 100 µM (inactive)
- GI50 (OVCAR-8): > 100 µM (inactive)
- GI50 (RPMI-8226): > 100 µM (inactive)
- GI50 (RXF 393): > 100 µM (inactive)
- GI50 (RXF 631): > 100 µM (inactive)
- GI50 (SF-268): > 100 µM (inactive)
- GI50 (SF-295): > 100 µM (inactive)
- GI50 (SF-539): > 100 µM (inactive)
- GI50 (SK-MEL-28): > 100 µM (inactive)
- GI50 (SK-MEL-2): > 100 µM (inactive)
- GI50 (SK-MEL-5): > 100 µM (inactive)
- GI50 (SK-OV-3): > 100 µM (inactive)
- GI50 (SN12C): > 100 µM (inactive)
- GI50 (SNB-19): > 100 µM (inactive)
- GI50 (SNB-75): > 100 µM (inactive)
- GI50 (SNB-78): > 100 µM (inactive)
- GI50 (SW-620): > 100 µM (inactive)
- GI50 (TK-10): > 100 µM (inactive)
- GI50 (U-251): > 100 µM (inactive)
- GI50 (UACC-257): > 100 µM (inactive)
- GI50 (UACC-62): > 100 µM (inactive)
- GI50 (UO-31): > 100 µM (inactive)
- GI50 (XF498): > 100 µM (inactive)

SMILES: CC1CC(c2ccccc2)=Nc2ccccc2S1(=O)=O (centres undefined)
- GI50 (786-0): 17.2 µM (inactive)
- GI50 (A498): 14.8 µM (inactive)
- GI50 (A549): 23.6 µM (inactive)
- GI50 (ACHN): 16 µM (inactive)
- GI50 (CAKI-1): 22 µM (inactive)
- GI50 (CCRF-CEM): 19.7 µM (inactive)
- GI50 (COLO 205): 20.4 µM (inactive)
- GI50 (DLD-1): 15.1 µM (inactive)
- GI50 (DMS-114): 20.9 µM (inactive)
- GI50 (DMS-273): 20.1 µM (inactive)
- GI50 (EKVX): 20.4 µM (inactive)
- GI50 (HCC 2998): 5.2 µM (inactive)
- GI50 (HCT-116): 1.75 µM (inactive)
- GI50 (HCT-15): 24.1 µM
- GI50 (HL-60): 21 µM (inactive)
- GI50 (HOP-18): 13.9 µM (inactive)
- GI50 (HOP-62): 20.3 µM (inactive)
- GI50 (HOP-92): 27.9 µM (inactive)
- GI50 (IGROV-1): 17.7 µM (inactive)
- GI50 (K562): 19.4 µM (inactive)
- GI50 (KM-20L2): 17.8 µM (inactive)
- GI50 (KM12): 16.3 µM (inactive)
- GI50 (LOX IMVI): 17.3 µM (inactive)
- GI50 (LXFL 529): 15.3 µM (inactive)
- GI50 (M14): 20.7 µM (inactive)
- GI50 (M19-MEL): 14.9 µM (inactive)
- GI50 (MOLT-4): 16.8 µM (inactive)
- GI50 (Malme-3M): 17.9 µM (inactive)
- GI50 (NCI-H23): 16.6 µM (inactive)
- GI50 (NCI-H460): 16.3 µM (inactive)
- GI50 (NCI-H522): 17.3 µM (inactive)
- GI50 (OVCAR-3): 18.5 µM (inactive)
- GI50 (OVCAR-4): 19 µM (inactive)
- GI50 (OVCAR-5): 18.6 µM (inactive)
- GI50 (OVCAR-8): 21.1 µM (inactive)
- GI50 (RPMI-8226): 2.16 µM (inactive)
- GI50 (RXF 393): 15.3 µM (inactive)
- GI50 (RXF 631): > 10 µM (inactive)
- GI50 (SF-268): 16.9 µM (inactive)
- GI50 (SF-295): 20.2 µM (inactive)
- GI50 (SF-539): 18.4 µM (inactive)
- GI50 (SK-MEL-28): 16.3 µM (inactive)
- GI50 (SK-MEL-2): 14.8 µM (inactive)
- GI50 (SK-MEL-5): 17.9 µM (inactive)
- GI50 (SK-OV-3): 19.7 µM (inactive)
- GI50 (SN12C): 16.6 µM (inactive)
- GI50 (SNB-19): 14.3 µM (inactive)
- GI50 (SNB-75): 19.2 µM (inactive)
- GI50 (SNB-78): 15 µM (inactive)
- GI50 (SW-620): 16.2 µM (inactive)
- GI50 (TK-10): 23 µM (inactive)
- GI50 (U-251): 18.1 µM (inactive)
- GI50 (UACC-257): 11.6 µM (inactive)
- GI50 (UACC-62): 20.5 µM (inactive)
- GI50 (UO-31): 15.6 µM (inactive)
- GI50 (XF498): 18.6 µM (inactive)

SMILES: CC(=O)N1C/C(=C\c2ccc(N(C)C)cc2)C(=O)/C(=C/c2ccc(N(C)C)cc2)C1
- GI50 (786-0): 39.4 µM (inactive)
- GI50 (A498): 33.5 µM (inactive)
- GI50 (A549): > 100 µM (inactive)
- GI50 (ACHN): 87.5 µM (inactive)
- GI50 (CAKI-1): 41.1 µM (inactive)
- GI50 (CCRF-CEM): 46.9 µM (inactive)
- GI50 (COLO 205): > 10 µM (inactive)
- GI50 (DLD-1): 68.1 µM (inactive)
- GI50 (DMS-114): 30.2 µM (inactive)
- GI50 (DMS-273): 49.8 µM (inactive)
- GI50 (HCC 2998): 58.2 µM (inactive)
- GI50 (HCT-116): 40.6 µM (inactive)
- GI50 (HCT-15): > 100 µM
- GI50 (HL-60): 29.9 µM (inactive)
- GI50 (HOP-18): 71.9 µM (inactive)
- GI50 (HOP-62): > 100 µM (inactive)
- GI50 (HOP-92): > 100 µM (inactive)
- GI50 (HT-29): 36.6 µM (inactive)
- GI50 (IGROV-1): 53.2 µM (inactive)
- GI50 (K562): 60 µM (inactive)
- GI50 (KM-20L2): 28.7 µM (inactive)
- GI50 (KM12): 35.7 µM (inactive)
- GI50 (LOX IMVI): 35.3 µM (inactive)
- GI50 (LXFL 529): 64 µM (inactive)
- GI50 (M14): 40.1 µM (inactive)
- GI50 (M19-MEL): 33.6 µM (inactive)
- GI50 (MOLT-4): 51.4 µM (inactive)
- GI50 (Malme-3M): 75.7 µM (inactive)
- GI50 (NCI-H226): 57.9 µM (inactive)
- GI50 (NCI-H23): > 100 µM (inactive)
- GI50 (OVCAR-3): 20.4 µM (inactive)
- GI50 (OVCAR-4): > 100 µM (inactive)
- GI50 (OVCAR-5): > 100 µM (inactive)
- GI50 (OVCAR-8): 84.1 µM (inactive)
- GI50 (RPMI-8226): > 100 µM (inactive)
- GI50 (RXF 393): 41.6 µM (inactive)
- GI50 (RXF 631): 55.2 µM (inactive)
- GI50 (SF-268): 66.2 µM (inactive)
- GI50 (SF-295): 52.6 µM (inactive)
- GI50 (SF-539): 27.1 µM (inactive)
- GI50 (SK-MEL-28): > 100 µM (inactive)
- GI50 (SK-MEL-5): 54.2 µM (inactive)
- GI50 (SK-OV-3): 55.7 µM (inactive)
- GI50 (SN12C): 72.3 µM (inactive)
- GI50 (SNB-19): 24.8 µM (inactive)
- GI50 (SNB-75): 17.2 µM (inactive)
- GI50 (SNB-78): 85.9 µM (inactive)
- GI50 (SR): 35.6 µM (inactive)
- GI50 (SW-620): 41.5 µM (inactive)
- GI50 (TK-10): 75.7 µM (inactive)
- GI50 (U-251): 31.1 µM (inactive)
- GI50 (UACC-257): 47.4 µM (inactive)
- GI50 (UACC-62): 30.1 µM (inactive)
- GI50 (UO-31): > 100 µM (inactive)
- GI50 (XF498): > 100 µM (inactive)

Source: ChEMBL document CHEMBL1201862, “PubChem BioAssay data set” (2004)
